Here are results for one compound from ChEMBL document CHEMBL2203020, “Development of Synthetic Aminopeptidase N/CD13 Inhibitors to Overcome Cancer Metastasis and Angiogenesis” (ACS Med Chem Lett, 2012).

Structures are written as SMILES. Active and inactive are the calls of the source. The calls are words filed in the database; no cut-off is given here. Where only a bound is given, the exact number is not on record here.

Series [1] can be described thus: Cytotoxicity against mouse B16-BL6 cells assessed as cell growth inhibition after 24 hrs by MTT assay. In kind it is cell-based. On the technique in general: Formazan colour is commonly taken as a measure of viable cells.
The next series concerns B16-BL6. Nature of the series: Antiangiogenic activity against mouse B16-BL6 cells xenografted in C57BL/6 mouse assessed as decrease in number of vessels oriented towards the tumor mass at 100 mg/kg/day, ip administered for 4 days measured on day 5 by dissecting microscopic analysis. The format is functional, organism-based.
Series [2] addresses T1, Aminopeptidase N (Mus musculus, UniProt P97449).
T1 sequence (P97449 whole entry): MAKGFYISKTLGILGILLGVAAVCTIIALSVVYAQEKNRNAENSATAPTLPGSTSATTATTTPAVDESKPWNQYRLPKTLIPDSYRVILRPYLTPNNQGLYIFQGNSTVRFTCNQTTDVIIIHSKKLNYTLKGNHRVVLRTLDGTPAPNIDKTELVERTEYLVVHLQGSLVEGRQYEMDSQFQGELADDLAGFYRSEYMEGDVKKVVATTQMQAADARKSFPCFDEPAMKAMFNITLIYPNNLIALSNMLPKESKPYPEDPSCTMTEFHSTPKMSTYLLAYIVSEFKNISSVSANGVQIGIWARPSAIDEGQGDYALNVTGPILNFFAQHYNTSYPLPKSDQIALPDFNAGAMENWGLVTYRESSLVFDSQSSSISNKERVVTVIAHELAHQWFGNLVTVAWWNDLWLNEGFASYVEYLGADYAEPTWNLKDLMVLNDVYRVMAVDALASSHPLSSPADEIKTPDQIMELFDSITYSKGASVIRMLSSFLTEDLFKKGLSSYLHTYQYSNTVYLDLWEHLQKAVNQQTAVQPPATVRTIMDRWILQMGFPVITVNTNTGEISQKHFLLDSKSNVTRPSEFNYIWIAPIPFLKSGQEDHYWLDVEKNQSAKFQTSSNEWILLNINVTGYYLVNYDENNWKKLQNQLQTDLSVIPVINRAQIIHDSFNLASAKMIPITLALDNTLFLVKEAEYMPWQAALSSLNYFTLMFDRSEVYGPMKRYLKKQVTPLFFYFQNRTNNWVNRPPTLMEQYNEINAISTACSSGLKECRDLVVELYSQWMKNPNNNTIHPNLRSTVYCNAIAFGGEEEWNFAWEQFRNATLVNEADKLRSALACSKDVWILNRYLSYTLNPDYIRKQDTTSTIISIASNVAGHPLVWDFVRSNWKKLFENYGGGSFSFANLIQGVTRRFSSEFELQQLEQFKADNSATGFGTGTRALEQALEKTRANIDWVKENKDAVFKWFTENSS
Description: Inhibition of APN in mouse B16-BL6 cell surface assessed as inhibition of L-Leu-p-nitroanilide substrate hydrolysis incubated for 5 mins before substrate addition by UV-Vis spectrophotometric analysis.

The next series deals with HUVEC. Description: Antiangiogenesis activity against HUVEC assessed as decrease in capillary tubular structure formation at 25 ug/ml after 8 hrs by microscopic analysis. The format is functional, cell-based. Particulars: Homo sapiens.
Series [3] relates to ES2. Description: Inhibition of human ES2 cell invasion at 15 to 150 uM after 8 hrs by Matrigel invasion assay. The format is functional, cell-based.
For series [4], the system named is ES2. Nature of the series: Inhibition of human ES2 cell migration at 150 uM by crystal violet staining based microscopic analysis. The format is functional.
The nature of series [5]: Cytotoxicity against human ES2 cells assessed as cell growth inhibition rate at 50 ug/ml after 24 hrs by MTT assay. The format is cell-based. Particulars: read-out: GI.
The target of series [6] is 72 kDa type IV collagenase (Homo sapiens, UniProt P08253). Nature of the series: Inhibition of recombinant MMP-2 using succinylated gelatin as substrate incubated for 10 mins before addition of substrate measured after 60 mins by UV-Vis spectrophotometric analysis.
Chain of 72 kDa type IV collagenase (P08253 whole entry): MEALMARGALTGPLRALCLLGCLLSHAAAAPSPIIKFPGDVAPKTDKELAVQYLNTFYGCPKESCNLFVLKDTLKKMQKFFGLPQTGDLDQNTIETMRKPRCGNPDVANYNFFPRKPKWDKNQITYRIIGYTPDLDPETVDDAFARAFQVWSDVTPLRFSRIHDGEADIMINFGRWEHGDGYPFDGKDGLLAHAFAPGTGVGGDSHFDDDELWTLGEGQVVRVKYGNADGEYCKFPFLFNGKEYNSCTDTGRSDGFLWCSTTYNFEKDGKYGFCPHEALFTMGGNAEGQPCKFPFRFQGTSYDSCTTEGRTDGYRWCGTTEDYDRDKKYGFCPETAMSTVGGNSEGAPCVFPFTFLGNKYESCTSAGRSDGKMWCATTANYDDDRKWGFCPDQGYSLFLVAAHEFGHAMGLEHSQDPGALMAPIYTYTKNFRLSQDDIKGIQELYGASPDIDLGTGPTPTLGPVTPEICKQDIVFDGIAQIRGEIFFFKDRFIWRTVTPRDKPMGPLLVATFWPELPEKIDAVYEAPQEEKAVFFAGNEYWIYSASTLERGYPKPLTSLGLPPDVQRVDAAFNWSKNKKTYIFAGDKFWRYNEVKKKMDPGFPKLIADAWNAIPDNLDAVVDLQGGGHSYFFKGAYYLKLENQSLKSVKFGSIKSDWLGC
Series [7] can be described thus: Cytotoxicity against human ES2 cells assessed as cell growth inhibition rate at 5 ug/ml after 24 hrs by MTT assay. Particulars: read-out: GI. The format is cell-based.
The target in series [8] is T1, Aminopeptidase N. Nature of the series: Inhibition of mouse APN.

One may read the GI50 as the concentration that inhibits growth by half. As a reminder, the IC50 is the point on the concentration scale where inhibition reaches its midpoint. What is called Ki is a measure of affinity in units of concentration, obtained from inhibition or displacement. Low values mean a stronger hold on the target, high ones a looser hold on the target. For the compound `CC(C)C[C@H](NC(=O)[C@@H](O)[C@H](N)Cc1ccccc1)C(=O)O` [UBENIMEX], the GI50 at 24 h in [1] is over 500 µM. Also, the outcome in the series on B16-BL6 and in the series on HUVEC was Active. The IC50 amounted to 23.2 µM at Aminopeptidase N [2] and 276 µM in [6]. The inhibition result with ES2 [3] and with ES2 [4] was “Active” each time. In [5], the inhibition at 24 h, 50 ug/ml is 2.89%. Also, in series [7], the inhibition at 24 h, 5 ug/ml is under 1%. This compound also displayed a Ki at Aminopeptidase N [8] of 3.03 µM.
